These results are taken from patent publication US20260000079A1, “COMPOSITIONS AND METHODS FOR MODULATING IMMUNITY IN PLANTS” (BOYCE THOMPSON INSTITUTE FOR PLANT RESEARCH, INC., priority 2019, published 2026).

Data set [1] has as its system Arabidopsis wildtype and ibr10, ech2, ech2ibr10, or acx1acx5 mutants. Type of data set: in vivo, Arabidopsis thaliana. The following applies: roots treated with 1 μM ascr #18. As to the method:
FIG. 3A provides a comparison of peroxisomal β-oxidation (pβo) pathways and associated enzymes involved in the conversion of indole-3-butyric acid (IBA)-to-indole acetic acid (IAA) in Arabidopsis and ascaroside biosynthesis in C. elegans. FIG. 3B provides LC-MS analysis of Arabidopsis seedlings treated with 1 μM ascr #18 for 24 hours before sample extraction, comparing ascr #9 production in wildtype and ibr10, ech2, ech2ibr10, or acx1acx5 mutants. FIG. 3C provides a comparison of ascaroside abundances in Arabidopsis wildtype and acx1acx5 roots treated with 1 μM ascr #18. Data are averages±SEM (n=5); n.d.=not detected. FIG. 3D provides RNAseq analysis of ten day-old Arabidopsis wildtype and acx1acx5 mutant roots, plotted as transcript abundance. Data are averages±s.d (n=6).
Arabidopsis thaliana mutant genotypes in the Col-0 background, ibr10-1, ech2-1, ibr10-1ech2-1, and acx1-2acx5-1, were obtained from Rice University (Houston, TX) (Strader, et al. (2011) Plant Cell 23:984-999; Adham, et al. (2005) Plant J. 41:859-874).
To test whether ascr #18 is metabolized via pβo in plants, Arabidopsis mutants impaired in key enzymes of this pathway were analyzed (FIG. 3B). […] In contrast, two other putative po genes, ibr10 and ech2, a putative enoyl-CoA hydratases (Strader, et al. (2011) Plant Cell 23:984-999; Adham, et al. (2005) Plant J. 41:859-874; Zolman, et al. (2008) Genetics 180(1): 237-51), are not required for ascr #18 metabolism in Arabidopsis. ACXs participate in the […] step of pβo by introducing α,β-unsaturation in the side-chain (Von Reuss, et al. (2012) J. Am. Chem. Soc. 134:1817-1824; Strader, et al. (2011) Plant Cell 23:984-999). […] These observations indicate that ascr #18 metabolism in plants into shorter-chained ascarosides proceeds via pβo, and that ACX1 and/or ACX5 are strictly required for chain shortening of ascr #10, whereas the first chain-shortening step from ascr #18 to ascr #10 may involve additional acyl-CoA oxidases.

Data set [2] concerns Arabidopsis root exudates. As to the kind of experiment: LC-MS of root exudates of ascr #18-treated Arabidopsis seedlings. Type of data set: in vivo, Arabidopsis thaliana. To be noted: for secretion of ascr #18 metabolites via roots: ascr #18-treated wildtype, 6 hours treatment. How it is done:
(§1) Data are average±SEM (n=6), n.d.=not detected. […] Exudates from approximately 40 seedlings were collected in distilled water and pooled. Abundances of ascarosides are shown as the peak area, as measured by LC-MS. Data are average±SEM (n=3); n.d.=not detected. FIGS. 5C and 5D show the relative abundances of ascarosides in root exudates of eight-day old tomato seedlings treated with 10 nM (FIG. 5C) or 1000 nM (FIG. 5D) ascr #18 for 6 hours. Exudates from approximately 10 seedlings were collected in distilled water and pooled. Abundances of ascarosides are shown as the peak area, as measured by LC-MS. Data are average±SEM (n=3); n.d.=not detected. FIG. 5E provides the relative abundances of ascr #10, ascr #1, and ascr #9 in the growth media of eight-day old tomato seedlings supplemented with 1 μM ascr #18. Ten-gram media samples were collected at different time points over a 48 hour period for metabolome extraction. Abundances of ascarosides are shown as the peak area, as measured by LC-MS.
(§2) To test this possibility, root-secreted metabolites of ascr #18- and mock-treated Arabidopsis were compared (FIG. 5A). For this experiment, 10-day old Arabidopsis seedlings were treated in growth media supplemented with ascr #18 for 6 hours prior to collection of exudates from roots submerged in water. […] Analogous results were obtained in experiments with tomato roots (FIG. 5C, 5D).

The subject of another data set is tomato root exudates. As to the kind of experiment: LC-MS of root exudates and growth media of ascr #18-treated tomato seedlings. Format: in vivo, Solanum lycopersicum. How it is done:
as §1, §2

Regarding `C[C@H](CCCCC(=O)O)O[C@@H]1O[C@@H](C)[C@H](O)C[C@H]1O` [ascr #1], in data set [1], the “ascaroside levels in ascr #18-treated acx1acx5 mutant compared with wildtype” value is recorded as “not detected”. Besides, the “secretion of ascr #18 metabolites via roots” value in data set [2] is listed as “secretion”.

Turning to `C[C@H](CCCCCCC(=O)O)O[C@@H]1O[C@@H](C)[C@H](O)C[C@H]1O` [ascr #10], in data set [1], the “ascaroside levels in ascr #18-treated acx1acx5 mutant compared with wildtype” value was “smaller amounts”. Moreover, the “relative abundance among root-excreted ascr #18 metabolites” value (in data set [2] (Arabidopsis); with tomato root exudates) was “least abundant” each time. The “ascarosides in root exudates of acx1acx5” value in data set [2] (acx1acx5 seedlings, 10 nM ascr #18 for 6 hours) is “detected”. The “secretion of ascr #18 metabolites via roots” value in data set [2] is listed as “secretion”.
